Reference: paper PMC11671526, “β-caryophyllene sensitizes hepatocellular carcinoma cells to chemotherapeutics and inhibits cell malignancy through targeting MAPK signaling pathway” (Frontiers in Pharmacology, 2024)

Legend:
[1] = tested on: HepG2 cells; test: CCK8 viability of cells infected by pSL4-Flag vector or pSL4-Flag-PGF lentivirus; format: cell-based; details: Homo sapiens, HepG2, 48 h
Description: (§1) Cell viability assay using the CCK8 reagent (Bimake, Shanghai, China) was conducted according to the manufacturer’s instructions. The cell proliferation data were used to calculate the cell viability. Briefly, HepG2, SMMC-7721, and HL-7702 cells with a density of 5 × 10^3 cells/well were seeded into each well of 96-well plates and incubated overnight. […] After 48 h, 10 µL of CCK8 reagent was added to each well, followed by 2 h incubation at 37°C and measurement of absorbance at 450 nm using a microplate reader (Molecular Devices, LLC.). The cell viability percentage of all compounds or their combinations at certain concentrations during the treatment period was evaluated by normalizing absorbance at 450 nm to that of vehicle controls. The half maximal inhibitory concentrations (IC50) values were calculated using the GraphPad Prism 8 software.
(§2) The placental growth factor (PGF) coding sequence was amplified using gene specific primers and then subcloned into a lentiviral vector pSL4-Flag expressing the puromycin resistance gene to generate pSL4-Flag-PGF vector with a CMV promoter driving PGF expression. The primers used to amplify the PGF coding sequence, check the amplified DNA fragment and verify its ectopic expression are listed in Supplementary Table S1. Lentiviruses carrying pSL4-Flag-PGF and an empty pSL4-Flag vector were produced and used to infect HCC cells based on our previously reported procedure ([Wan et al., 2012]). Ectopic PGF expression was achieved by infecting HCC cells with pSL4-Flag-PGF lentivirus, and the control cells were produced by infecting HCC cells using lentivirus carrying the empty pSL4-Flag-vector.

[2] = tested on: SMMC-7721 cells; test: as above; format: cell-based; details: Homo sapiens
Description: as §1, §2

[3] = tested on: HepG2 cells; test: CCK8 cell viability assay; format: cell-based, human; details: Homo sapiens; HepG2, 48 h, individual treatment; read-out: IC50 (half maximal inhibitory concentration)
Description: (§3) Cell viability assay using the CCK8 reagent (Bimake, Shanghai, China) was conducted according to the manufacturer’s instructions. The cell proliferation data were used to calculate the cell viability. Briefly, HepG2, SMMC-7721, and HL-7702 cells with a density of 5 × 10^3 cells/well were seeded into each well of 96-well plates and incubated overnight. […] After 48 h, 10 µL of CCK8 reagent was added to each well, followed by 2 h incubation at 37°C and measurement of absorbance at 450 nm using a microplate reader (Molecular Devices, LLC.). […] The effects of the combinatorial inhibition were visualized by isobologram analyses ([Tallarida, 2001]). […] A line was drawn to link the two IC50 points. […] The dots above, on, or below the line indicate the “antagonistic,” “additive” and “synergistic” effects, respectively. The same method was used to obtain the CI value for the cotreatment of BCP and DDP.

[4] = tested on: SMMC-7721 cells; test: CCK8 cell viability assay; format: cell-based, human; details: Homo sapiens; SMMC-7721, 48 h, individual treatment; read-out: IC50 (half maximal inhibitory concentration)
Description: as §3

[5] = tested on: HL-7702 normal liver cells; test: CCK8 cell viability assay; format: cell-based, human; details: Homo sapiens, L02; HL-7702, 48 h, individual treatment; read-out: IC50 (half maximal inhibitory concentration)
Description: as §3

C=C1CC/C=C(\C)CC[C@@H]2[C@@H]1CC2(C)C [BCP, β-caryophyllene]
IC50 ([1]; HepG2 cells carrying empty vector): 178 µM
IC50 ([1]; HepG2 cells expressing Flag-PGF): 284 µM
IC50 ([2]; SMMC-7721, SMMC-7721 cells carrying empty vector): 318 µM
IC50 ([2]; SMMC-7721, SMMC-7721 cells expressing Flag-PGF): 405 µM
IC50 [3]: 194 ± 3.2 µM
IC50 [4]: 334.5 ± 2.96 µM
IC50 [5]: 610.9 ± 2.72 µM
